Measurements from PubChem BioAssay AID330 (DTP/NCI, 2004).
Values joined by “and” are separate entries in the source; they are usually repeats but may differ in a detail not shown here. Identical values can stand only once. Toxic doses and inconclusive results are not listed.

Tested on: P388 leukemia ip, CD2F1 mice, survival T/C
Assay: NCI In Vivo Anticancer Drug Screen. Data for tumor model P388 Leukemia (intraperitoneal) in CD2F1 (CDF1) mice
Details: endpoint: median survival time, higher = longer survival
How it was run: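 Mice carrying the transplanted tumor received test compound or vehicle. Survival was recorded in each group, and the value is the treated-group measurement divided by that of the vehicle-treated control group.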

[1] = dose: 50.0 mg/kg/injection, schedule: Q01DX005 (ip), vehicle: saline with Tween-80
[2] = dose: 200.0 mg/kg/injection, schedule: Q01DX005 (ip), vehicle: saline with Tween-80
[3] = dose: 100.0 mg/kg/injection, schedule: Q01DX005 (ip), vehicle: saline with Tween-80
[4] = dose: 50.0 mg/kg/injection, schedule: Q01DX009 (ip), vehicle: saline with Tween-80
[5] = dose: 100.0 mg/kg/injection, schedule: Q01DX009 (ip), vehicle: saline with Tween-80
[6] = dose: 200.0 mg/kg/injection, schedule: Q01DX009 (ip), vehicle: saline with Tween-80
[7] = dose: 60.0 mg/kg/injection, schedule: Q01DX005 (ip), vehicle: saline with Tween-80

Compound: C[C@]12CC[C@H](O)C[C@@H]1CC[C@@H]1[C@@H]2CC[C@]2(C)c3nc4ccccc4c(C(=O)O)c3C[C@@H]12
- T/C (dose: 12.5 mg/kg/injection, schedule: Q01DX005 (ip), vehicle: saline with Tween-80): 101 % of control
- T/C (dose: 25.0 mg/kg/injection, schedule: Q01DX005 (ip), vehicle: saline with Tween-80): 100 % of control
- T/C [1]: 86 % of control and 94 % of control
- T/C [2]: 93 % of control

Compound: Cn1nc(C(N)=O)c(=O)[nH]c1=O
- T/C [1]: 104 % of control
- T/C [3]: 97 % of control
- T/C [2]: 103 % of control

Compound: C#CCSc1nnnn1-c1ccccc1
- T/C [4]: 98 % of control
- T/C [5]: 90 % of control
- T/C [6]: 90 % of control

Compound: COC(=O)/C(=C/c1ccc(/C=C(/C(=O)O)c2ccc(OC)cc2)o1)c1ccccc1
- T/C [7]: 97 % of control
- T/C (dose: 120.0 mg/kg/injection, schedule: Q01DX005 (ip), vehicle: saline with Tween-80): 100 % of control
- T/C (dose: 240.0 mg/kg/injection, schedule: Q01DX005 (ip), vehicle: saline with Tween-80): 90 % of control

Compound: NC1=C(O)C(=O)C(c2c(Cl)cccc2Cl)O1 (centres undefined)
- T/C (dose: 60.0 mg/kg/injection, schedule: Q01DX005 (ip), vehicle: Klucel (hydroxypropylcellulose) (HPC)): 105 % of control
- T/C (dose: 120.0 mg/kg/injection, schedule: Q01DX005 (ip), vehicle: Klucel (hydroxypropylcellulose) (HPC)): 102 % of control
- T/C (dose: 240.0 mg/kg/injection, schedule: Q01DX005 (ip), vehicle: Klucel (hydroxypropylcellulose) (HPC)): 105 % of control

Compound: COc1cc2c(O)cc(C(=O)O)c(-c3cc(OC)c(OC)c(OC)c3)c2cc1OC
- T/C [1]: 98 % of control
- T/C [3]: 103 % of control
- T/C [2]: 100 % of control

Compound: CCc1c(COC(=O)NC)c(COC(=O)NC)cc2c1[nH]c1ccccc12
- T/C [1]: 88 % of control
- T/C [3]: 88 % of control
- T/C [2]: 89 % of control

Compound: CCN(CC)CCSCCCN=c1c2ccc(Cl)cc2n(O)c2ccc(OC)nc12
- T/C (dose: 50.0 mg/kg/injection, schedule: Q01DX009 (ip), vehicle: saline + alcohol): 115 % of control
- T/C (dose: 100.0 mg/kg/injection, schedule: Q01DX009 (ip), vehicle: saline + alcohol): 112 % of control

Compound: Clc1cc(-c2ccccc2)no1
- T/C (dose: 25.0 mg/kg/injection, schedule: Q04DX003 (ip), vehicle: Klucel (hydroxypropylcellulose) (HPC)): 109 % of control
- T/C (dose: 50.0 mg/kg/injection, schedule: Q04DX003 (ip), vehicle: Klucel (hydroxypropylcellulose) (HPC)): 108 % of control
- T/C (dose: 100.0 mg/kg/injection, schedule: Q04DX003 (ip), vehicle: Klucel (hydroxypropylcellulose) (HPC)): 99 % of control and 112 % of control

Compound: C[C@@H]1CCC[C@@H](NC(=O)N(CCCl)N=O)C1
- T/C (dose: 18.75 mg/kg/injection, schedule: Q01DX009 (ip), vehicle: Klucel (hydroxypropylcellulose) (HPC)): 176 % of control
- T/C (dose: 37.5 mg/kg/injection, schedule: Q01DX009 (ip), vehicle: Klucel (hydroxypropylcellulose) (HPC)): 193 % of control
- T/C (dose: 75.0 mg/kg/injection, schedule: Q01DX009 (ip), vehicle: Klucel (hydroxypropylcellulose) (HPC)): 249 % of control

Compound: CCOC(=O)C(C(=O)OCC)C1CCC2(C)CCC(=O)C=C2C1 (centres undefined)
- T/C [4]: 95 % of control
- T/C [5]: 100 % of control
- T/C [6]: 105 % of control

Compound: COC(=O)c1n[nH]c(C(C)C)c1N=NN(C)C
- T/C (dose: 6.25 mg/kg/injection, schedule: Q01DX009 (ip), vehicle: saline): 107 % of control and 113 % of control
- T/C (dose: 12.5 mg/kg/injection, schedule: Q01DX009 (ip), vehicle: saline): 116 % of control and 122 % of control

Compound: CN=C(NCCc1ccccc1)c1ccc(NC(=O)c2ccc(C(=O)Nc3ccc(C(=NC)NCCc4ccccc4)cc3)cc2)cc1
- T/C (dose: 3.12 mg/kg/injection, schedule: Q01DX005 (ip), vehicle: Klucel (hydroxypropylcellulose) (HPC)): 114 % of control
- T/C (dose: 6.25 mg/kg/injection, schedule: Q01DX005 (ip), vehicle: Klucel (hydroxypropylcellulose) (HPC)): 116 % of control and 122 % of control
- T/C (dose: 12.5 mg/kg/injection, schedule: Q01DX005 (ip), vehicle: Klucel (hydroxypropylcellulose) (HPC)): 154 % of control

Compound: O=C(Nc1ccc(Cl)cc1)Nc1nnc(-c2ccc(F)cc2)o1
- T/C (dose: 15.0 mg/kg/injection, schedule: Q01DX005 (ip), vehicle: saline with Tween-80): 100 % of control
- T/C (dose: 30.0 mg/kg/injection, schedule: Q01DX005 (ip), vehicle: saline with Tween-80): 91 % of control
- T/C [7]: 90 % of control

Compound: COc1ccc(C2/C(=N/O)CCCC2C)cc1 (centres undefined)
- T/C [1]: 94 % of control
- T/C [3]: 97 % of control
- T/C [2]: 87 % of control
